# Measured values published in article PMC6017830, “Furan- and Thiophene-2-Carbonyl Amino Acid Derivatives Activate Hypoxia-Inducible Factor via Inhibition of Factor Inhibiting Hypoxia-Inducible Factor-1” (Molecules : A Journal of Synthetic Chemistry and Natural …, 2018).
# Tested on: HIF-HRE transcriptional activity in SKN:HRE-MLuc cells (reflects FIH-1 inhibition)
# Test: HIF activity under hypoxia, HRE-MLuc luciferase reporter assay
# Type: cell-based, human
# Conditions: 100 μM, SKN:HRE-MLuc cells, 3% O2, 24 h
# Method: To evaluate HIF transactivation following FIH-1 inhibition […], we employed a luciferase reporter assay system in the human neuroblastoma cell line SK-N-BE(2)c. […] Hereafter these HRE reporter cells were designated SKN:HRE-MLuc cells.
# SKN:HRE-MLuc (4 × 10^4) were incubated for 24 h on a 96 well culture plate. The medium was replaced with complete media and the test compounds (100, 25, 6.3 and 1.6 μM). DMSO (0.1%) was used as a vehicle control, DMOG (100 μM) and FG4592 (100 μM) were used as a PHDs or FIH-1 inhibitor. The cells were incubated for 24 h under a humidified atmosphere of 5% CO2 and 3% O2 at 37 °C. After incubation, the MLuc activity in culture media was measured with luciferase substrate (Takara, Shiga, Japan) by LB960 luminometer (Berthold, Wildbad, Germany). The HIF activity was calculated as the MLuc intensity, based on the vehicle and positive controls. The lower limit dose out of 100 μM, 25 μM, 6.3 μM, 1.6 μM was listed in Table 1 and Table 2, where 25% RLU intensity was measured using DMOG as a positive control.
row,Compound,100 μM Activity (RLU intensity at 100 μM stimulation compared with the positive control DMOG) [%]
1,(R)-Ethyl (benzothiophene-2-carbonyl)phenylalaninate [Compound 42],0

# Same assay, conditions: Homo sapiens; 100 μM, SKN:HRE-MLuc cells, 3% O2, 24 h; read-out: 100 μM Activity (RLU intensity at 100 μM stimulation compared with the positive control DMOG)
row,Compound,activation at 100 µM [%]
1,"COC(=O)[C@@H](Cc1c[nH]c2ccccc12)NC(=O)c1cccs1 [Compound 6, (R)-Methyl (thiophene-2-carbonyl)tryptophanate]",0
2,"CCOC(=O)[C@H](Cc1ccccc1)NC(=O)c1ccc(C)s1 [Compound 15, (S)-Ethyl (5-methylthiophene-2-carbonyl)phenylalaninate]",12
3,"COC(=O)CNC(=O)c1ccc(-c2ccc(Oc3ccccc3)cc2)s1 [Compound 33, Methyl (5-(4-phenoxyphenyl)thiophene-2-carbonyl)glycinate]",0
4,"Cc1ccc(C(=O)N[C@H](Cc2c[nH]c3ccccc23)C(=O)O)s1 [Compound 16, (R)-(5-methylthiophene-2-carbonyl)tryptophan]",30
5,"COC(=O)CNC(=O)c1cc2ccccc2s1 [Compound 39, Methyl (benzothiophene-2-carbonyl)glycinate]",13
6,"COC(=O)[C@H](Cc1ccccc1)NC(=O)c1ccc(-c2ccccc2)s1 [Compound 24, (S)-Methyl (5-phenylthiophene-2-carbonyl)phenylalaninate]",7
7,"COC(=O)[C@H](Cc1c[nH]c2ccccc12)NC(=O)c1ccco1 [Compound 3, (S)-Methyl (furan-2-carbonyl)tryptophanate]",0
8,"Cc1ccc(C(=O)NCC(=O)O)s1 [Compound 11, (5-Methylthiophene-2-carbonyl)glycine]",23
9,"COC(=O)CNC(=O)c1ccco1 [Compound 1, Methyl (furan-2-carbonyl)glycinate]",20
10,"Cc1ccc(C(=O)N[C@@H](C)C(=O)O)s1 [Compound 12, (S)-(5-Methylthiophene-2-carbonyl)alanine]",18
11,"CCOC(=O)[C@H](Cc1ccccc1)NC(=O)c1cc2ccccc2s1 [Compound 41, (S)-Ethyl (benzothiophene-2-carbonyl)phenylalaninate]",2
12,"O=C(N[C@@H](Cc1ccccc1)C(=O)O)c1ccc(-c2ccccc2)s1 [Compound 23, (S)-(5-Phenylthiophene-2-carbonyl)phenylalanine]",0
13,"COC(=O)[C@@H](Cc1c[nH]c2ccccc12)NC(=O)c1ccco1 [Compound 4, (R)-Methyl (furan-2-carbonyl)tryptophanate]",0
14,"CCOC(=O)[C@H](Cc1ccccc1)NC(=O)c1ccc(-c2ccc(-c3ccccc3)cc2)s1 [Compound 32, (S)-Ethyl (5-((1,1′-biphenyl)-4-yl)thiophene-2-carbonyl)phenylalaninate]",0
15,"CCOC(=O)[C@H](Cc1ccccc1)NC(=O)c1ccc(-c2ccc(Oc3ccccc3)cc2)s1 [Compound 35, (S)-Ethyl (5-(4-phenoxyphenyl)thiophene-2-carbonyl)phenylalaninate]",0
16,"CCOC(=O)[C@@H](Cc1c[nH]c2ccccc12)NC(=O)c1ccc(C)s1 [Compound 18, (R)-Ethyl (5-methylthiophene-2-carbonyl)tryptophanate]",52
17,"COC(=O)[C@H](Cc1ccccc1)NC(=O)c1ccc(-c2ccccc2)o1 [Compound 20, (S)-Methyl (5-phenylfuran-2-carbonyl)phenylalaninate]",10

# Same assay, conditions: Homo sapiens; SKN:HRE-MLuc cells, 3% O2, 24 h; doses 100, 25, 6.3, 1.6 μM; DMOG 100 μM as positive control; read-out: 25% Activity (lower dose limit showing 25% of the RLU intensity of the positive control DMOG)
row,Compound,minimal effective concentration [µM]
1,"CCOC(=O)[C@H](Cc1ccccc1)NC(=O)c1ccc(C)s1 [Compound 15, (S)-Ethyl (5-methylthiophene-2-carbonyl)phenylalaninate]",25
2,"Cc1ccc(C(=O)N[C@H](Cc2c[nH]c3ccccc23)C(=O)O)s1 [Compound 16, (R)-(5-methylthiophene-2-carbonyl)tryptophan]",100
3,"Cc1ccc(C(=O)NCC(=O)O)s1 [Compound 11, (5-Methylthiophene-2-carbonyl)glycine]",25
4,"COC(=O)CNC(=O)c1ccco1 [Compound 1, Methyl (furan-2-carbonyl)glycinate]",25
5,"CCOC(=O)[C@@H](Cc1c[nH]c2ccccc12)NC(=O)c1ccc(C)s1 [Compound 18, (R)-Ethyl (5-methylthiophene-2-carbonyl)tryptophanate]",100

# Same assay, conditions: hypoxic conditions (3% O2), 24 h; reference compounds at 100 μM
row,Compound,"HIF activity (HRE-MLuc reporter), result in words"
1,"COC(=O)CNC(=O)c1ccco1 [Compound 1, Methyl (furan-2-carbonyl)glycinate]",stabilized HIF and transactivated the HRE-driven MLuc reporter

# Tested on: SKN:HRE-MLuc cells
# Test: MTS assay (cellular toxicity)
# Type: cell-based, human
# Conditions: Homo sapiens; MTS assay
# Text: Next, we evaluated the activation of HIF by furan- and thiophene-2-carbonyl amino acid derivatives using the evaluation methods described above. Simultaneously, we investigated cellular toxicity for those derivatives with a 3-(4,5-dimethylthiazol-2-yl)-5-(3-carboxymethoxyphenyl)-2-(4-sulfophenyl)-2H-tetrazolium (MTS) assay. To indicate cellular membrane permeability, the partition coefficients, which are frequently represented by calculated logP (clogP) are listed in Table 1 and Table 2.
# Cellular toxicity was measured using the CellTiter 96® Aqueous One Solution Cell Proliferation Assay kit (Promega, Madison, WI, USA). The cells were stimulated with each compound and treated with the CellTiter solution. After incubation for 3 h, the absorbance of the solutions at 492 nm was measured by Multiskan FC (Thermo Fisher Scientific, Waltham, MS, USA). As a negative control, wells with culture media were used. Wells treated with DMSO (0.1%) were used as a positive control. The IC50 values were determined using these controls.
row,Compound,IC50 [µM]
1,"COC(=O)[C@@H](Cc1c[nH]c2ccccc12)NC(=O)c1cccs1 [Compound 6, (R)-Methyl (thiophene-2-carbonyl)tryptophanate]",> 100
2,"CCOC(=O)[C@H](Cc1ccccc1)NC(=O)c1ccc(C)s1 [Compound 15, (S)-Ethyl (5-methylthiophene-2-carbonyl)phenylalaninate]",> 100
3,"COC(=O)CNC(=O)c1ccc(-c2ccc(Oc3ccccc3)cc2)s1 [Compound 33, Methyl (5-(4-phenoxyphenyl)thiophene-2-carbonyl)glycinate]",> 100
4,"Cc1ccc(C(=O)N[C@H](Cc2c[nH]c3ccccc23)C(=O)O)s1 [Compound 16, (R)-(5-methylthiophene-2-carbonyl)tryptophan]",> 100
5,"COC(=O)CNC(=O)c1cc2ccccc2s1 [Compound 39, Methyl (benzothiophene-2-carbonyl)glycinate]",> 100
6,"COC(=O)[C@H](Cc1ccccc1)NC(=O)c1ccc(-c2ccccc2)s1 [Compound 24, (S)-Methyl (5-phenylthiophene-2-carbonyl)phenylalaninate]",> 100
7,"COC(=O)[C@H](Cc1c[nH]c2ccccc12)NC(=O)c1ccco1 [Compound 3, (S)-Methyl (furan-2-carbonyl)tryptophanate]",> 100
8,"Cc1ccc(C(=O)NCC(=O)O)s1 [Compound 11, (5-Methylthiophene-2-carbonyl)glycine]",> 100
9,"COC(=O)CNC(=O)c1ccco1 [Compound 1, Methyl (furan-2-carbonyl)glycinate]",> 100
10,"Cc1ccc(C(=O)N[C@@H](C)C(=O)O)s1 [Compound 12, (S)-(5-Methylthiophene-2-carbonyl)alanine]",> 100
11,"CCOC(=O)[C@H](Cc1ccccc1)NC(=O)c1cc2ccccc2s1 [Compound 41, (S)-Ethyl (benzothiophene-2-carbonyl)phenylalaninate]",> 100
12,"O=C(N[C@@H](Cc1ccccc1)C(=O)O)c1ccc(-c2ccccc2)s1 [Compound 23, (S)-(5-Phenylthiophene-2-carbonyl)phenylalanine]",> 100
13,"COC(=O)[C@@H](Cc1c[nH]c2ccccc12)NC(=O)c1ccco1 [Compound 4, (R)-Methyl (furan-2-carbonyl)tryptophanate]",> 100
14,"CCOC(=O)[C@H](Cc1ccccc1)NC(=O)c1ccc(-c2ccc(-c3ccccc3)cc2)s1 [Compound 32, (S)-Ethyl (5-((1,1′-biphenyl)-4-yl)thiophene-2-carbonyl)phenylalaninate]",> 100
15,"CCOC(=O)[C@H](Cc1ccccc1)NC(=O)c1ccc(-c2ccc(Oc3ccccc3)cc2)s1 [Compound 35, (S)-Ethyl (5-(4-phenoxyphenyl)thiophene-2-carbonyl)phenylalaninate]",> 100
16,"CCOC(=O)[C@@H](Cc1c[nH]c2ccccc12)NC(=O)c1ccc(C)s1 [Compound 18, (R)-Ethyl (5-methylthiophene-2-carbonyl)tryptophanate]",> 100
17,"COC(=O)[C@H](Cc1ccccc1)NC(=O)c1ccc(-c2ccccc2)o1 [Compound 20, (S)-Methyl (5-phenylfuran-2-carbonyl)phenylalaninate]",> 100

# Same assay, conditions: MTS assay
row,Compound,IC50 [µM]
1,(R)-Ethyl (benzothiophene-2-carbonyl)phenylalaninate [Compound 42],> 100
